In PubChem BioAssay (NCI):
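Test compounds were applied to cells in 96-well plates for 48 hours at 5 doses. GI50 is the concentration that inhibits growth by half. The concentration for full growth arrest is given as TGI.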

Key:
Test in all cases: growth of human tumour cells (NCI), 48 h
OVCAR-4 ovarian = tested on: OVCAR-4 ovarian
SF-268 CNS = tested on: SF-268 CNS
NCI-H460 lung = tested on: NCI-H460 lung
TK-10 renal = tested on: TK-10 renal
EKVX NSCLC = tested on: EKVX NSCLC
HCT-15 colon = tested on: HCT-15 colon
M14 melanoma = tested on: M14 melanoma
OVCAR-8 ovarian = tested on: OVCAR-8 ovarian
ACHN renal = tested on: ACHN renal
SF-539 CNS = tested on: SF-539 CNS
SK-MEL-5 melanoma = tested on: SK-MEL-5 melanoma
HOP-92 NSCLC = tested on: HOP-92 NSCLC
SW-620 colon = tested on: SW-620 colon
SN12C renal = tested on: SN12C renal
SF-295 CNS = tested on: SF-295 CNS
A498 renal = tested on: A498 renal
SR leukemia = tested on: SR leukemia
UACC-257 melanoma = tested on: UACC-257 melanoma
MDA-MB-231 breast = tested on: MDA-MB-231 breast
NCI-H23 lung = tested on: NCI-H23 lung
NCI/ADR-RES ovarian = tested on: NCI/ADR-RES ovarian
HCT-116 colon = tested on: HCT-116 colon
NCI-H226 lung = tested on: NCI-H226 lung
OVCAR-3 ovarian = tested on: OVCAR-3 ovarian
HCC-2998 colon = tested on: HCC-2998 colon
BT-549 breast = tested on: BT-549 breast
K-562 leukemia = tested on: K-562 leukemia
UO-31 renal = tested on: UO-31 renal
MOLT-4 leukemia = tested on: MOLT-4 leukemia
CAKI-1 renal = tested on: CAKI-1 renal
U251 CNS = tested on: U251 CNS
HOP-62 NSCLC = tested on: HOP-62 NSCLC
DU-145 prostate = tested on: DU-145 prostate
MALME-3M melanoma = tested on: MALME-3M melanoma
MDA-MB-435 = tested on: MDA-MB-435
MCF7 breast = tested on: MCF7 breast
KM12 colon = tested on: KM12 colon
OVCAR-5 ovarian = tested on: OVCAR-5 ovarian
UACC-62 melanoma = tested on: UACC-62 melanoma
RPMI-8226 leukemia = tested on: RPMI-8226 leukemia
CCRF-CEM leukemia = tested on: CCRF-CEM leukemia
SNB-75 CNS = tested on: SNB-75 CNS
LOX IMVI melanoma = tested on: LOX IMVI melanoma
SK-MEL-2 melanoma = tested on: SK-MEL-2 melanoma
NCI-H522 lung = tested on: NCI-H522 lung
HT29 colon = tested on: HT29 colon
HL-60(TB) leukemia = tested on: HL-60(TB) leukemia
SK-OV-3 ovarian = tested on: SK-OV-3 ovarian
A549 NSCLC = tested on: A549 NSCLC
PC-3 prostate = tested on: PC-3 prostate
786-0 renal = tested on: 786-0 renal
IGROV1 ovarian = tested on: IGROV1 ovarian
SNB-19 CNS = tested on: SNB-19 CNS
SK-MEL-28 melanoma = tested on: SK-MEL-28 melanoma
HS 578T breast = tested on: HS 578T breast
T-47D breast = tested on: T-47D breast
COLO 205 colon = tested on: COLO 205 colon

CCN(CC)c1ccc(C2CC(c3cc(OC)c(OC)c(OC)c3)=NN2)cc1 (stereo not drawn)
GI50 (OVCAR-4 ovarian): 4.34 µM
TGI (OVCAR-4 ovarian): > 100 µM
GI50 (SF-268 CNS): 0.797 µM
TGI (SF-268 CNS): > 100 µM
GI50 (NCI-H460 lung): 0.331 µM
TGI (NCI-H460 lung): 11.8 µM
GI50 (TK-10 renal): 36 µM
TGI (TK-10 renal): > 100 µM
GI50 (EKVX NSCLC): 0.305 µM
GI50 (HCT-15 colon): 0.597 µM
TGI (HCT-15 colon): > 100 µM
GI50 (M14 melanoma): 1.16 µM
TGI (M14 melanoma): > 100 µM
GI50 (OVCAR-8 ovarian): 0.43 µM
TGI (OVCAR-8 ovarian): > 27.5 µM
GI50 (ACHN renal): 1.55 µM
TGI (ACHN renal): > 100 µM
GI50 (SF-539 CNS): 0.29 µM
TGI (SF-539 CNS): 2.18 µM
GI50 (SK-MEL-5 melanoma): 0.706 µM
TGI (SK-MEL-5 melanoma): 3.52 µM
GI50 (HOP-92 NSCLC): 1.55 µM
TGI (HOP-92 NSCLC): 31.1 µM
GI50 (SW-620 colon): 0.47 µM
TGI (SW-620 colon): > 100 µM
GI50 (SN12C renal): 0.737 µM
TGI (SN12C renal): > 100 µM
GI50 (SF-295 CNS): 0.188 µM
TGI (SF-295 CNS): 5.19 µM
GI50 (A498 renal): 0.443 µM
TGI (A498 renal): 2.44 µM
GI50 (SR leukemia): 0.286 µM
TGI (SR leukemia): 1.73 µM
GI50 (UACC-257 melanoma): 20.2 µM
TGI (UACC-257 melanoma): > 100 µM
GI50 (MDA-MB-231 breast): 0.513 µM
TGI (MDA-MB-231 breast): 69.2 µM
GI50 (NCI-H23 lung): 2.69 µM
TGI (NCI-H23 lung): > 100 µM
GI50 (NCI/ADR-RES ovarian): 0.44 µM
TGI (NCI/ADR-RES ovarian): > 100 µM
GI50 (HCT-116 colon): 0.744 µM
TGI (HCT-116 colon): > 100 µM
GI50 (NCI-H226 lung): 4.48 µM
TGI (NCI-H226 lung): > 29.7 µM
GI50 (OVCAR-3 ovarian): 1.88 µM
TGI (OVCAR-3 ovarian): > 100 µM
GI50 (HCC-2998 colon): 1.15 µM
TGI (HCC-2998 colon): > 27 µM
GI50 (BT-549 breast): 1.03 µM
TGI (BT-549 breast): > 22.9 µM
GI50 (K-562 leukemia): 0.336 µM
TGI (K-562 leukemia): > 37.6 µM
GI50 (UO-31 renal): 1.5 µM
TGI (UO-31 renal): > 100 µM
GI50 (MOLT-4 leukemia): 1.56 µM
TGI (MOLT-4 leukemia): 8.14 µM
GI50 (CAKI-1 renal): 0.346 µM
GI50 (U251 CNS): 0.42 µM
TGI (U251 CNS): > 100 µM
GI50 (HOP-62 NSCLC): 0.456 µM
TGI (HOP-62 NSCLC): > 21.1 µM
GI50 (DU-145 prostate): 0.305 µM
TGI (DU-145 prostate): 1.49 µM
GI50 (MALME-3M melanoma): 14.5 µM
TGI (MALME-3M melanoma): > 78.7 µM
GI50 (MDA-MB-435): 0.404 µM
TGI (MDA-MB-435): > 100 µM
GI50 (MCF7 breast): 0.227 µM
GI50 (KM12 colon): 0.372 µM
TGI (KM12 colon): > 100 µM
GI50 (OVCAR-5 ovarian): 5.12 µM
TGI (OVCAR-5 ovarian): > 100 µM
GI50 (UACC-62 melanoma): 0.446 µM
TGI (UACC-62 melanoma): > 68.2 µM
GI50 (RPMI-8226 leukemia): 0.632 µM
TGI (RPMI-8226 leukemia): 7.91 µM
GI50 (CCRF-CEM leukemia): 0.277 µM
TGI (CCRF-CEM leukemia): 1.16 µM
GI50 (SNB-75 CNS): 0.372 µM
GI50 (LOX IMVI melanoma): 0.83 µM
TGI (LOX IMVI melanoma): > 42 µM
GI50 (SK-MEL-2 melanoma): 6.6 µM
TGI (SK-MEL-2 melanoma): > 95.5 µM
GI50 (NCI-H522 lung): 0.295 µM
TGI (NCI-H522 lung): 5.18 µM
GI50 (HT29 colon): 0.365 µM
TGI (HT29 colon): > 43 µM
GI50 (HL-60(TB) leukemia): 0.59 µM
TGI (HL-60(TB) leukemia): 2.7 µM
GI50 (SK-OV-3 ovarian): 0.537 µM
TGI (SK-OV-3 ovarian): > 100 µM
GI50 (A549 NSCLC): 0.591 µM
TGI (A549 NSCLC): > 32.2 µM
GI50 (PC-3 prostate): 0.342 µM
TGI (PC-3 prostate): 35.2 µM
GI50 (786-0 renal): 0.303 µM
GI50 (IGROV1 ovarian): 0.327 µM
TGI (IGROV1 ovarian): > 25.1 µM
GI50 (SNB-19 CNS): 0.636 µM
TGI (SNB-19 CNS): > 100 µM
GI50 (SK-MEL-28 melanoma): 23.7 µM
TGI (SK-MEL-28 melanoma): > 100 µM

CCn1ncc2c1nc(-c1ccccc1)c[n+]2[O-]
TGI (SF-268 CNS): > 100 µM
TGI (NCI-H460 lung): > 100 µM
TGI (HS 578T breast): > 100 µM
TGI (EKVX NSCLC): > 100 µM
TGI (HCT-15 colon): > 100 µM
TGI (M14 melanoma): > 100 µM
TGI (OVCAR-8 ovarian): > 100 µM
TGI (ACHN renal): > 100 µM
TGI (SF-539 CNS): > 100 µM
TGI (SN12C renal): > 100 µM
TGI (SF-295 CNS): > 100 µM
TGI (SR leukemia): > 100 µM
TGI (UACC-257 melanoma): > 100 µM
TGI (NCI-H23 lung): > 100 µM
TGI (NCI/ADR-RES ovarian): > 100 µM
TGI (HCT-116 colon): > 100 µM
TGI (OVCAR-3 ovarian): > 100 µM
TGI (K-562 leukemia): > 100 µM
TGI (UO-31 renal): > 100 µM
TGI (MOLT-4 leukemia): > 100 µM
TGI (DU-145 prostate): > 100 µM
TGI (MDA-MB-435): > 100 µM
TGI (MCF7 breast): > 100 µM
TGI (KM12 colon): > 100 µM
TGI (OVCAR-5 ovarian): > 100 µM
TGI (UACC-62 melanoma): > 100 µM
TGI (RPMI-8226 leukemia): > 100 µM
TGI (T-47D breast): > 100 µM
TGI (CCRF-CEM leukemia): > 100 µM
TGI (SNB-75 CNS): > 100 µM
TGI (SK-MEL-2 melanoma): > 100 µM
TGI (NCI-H522 lung): > 100 µM
TGI (HT29 colon): > 100 µM
TGI (A549 NSCLC): > 100 µM
TGI (PC-3 prostate): > 100 µM
TGI (786-0 renal): > 100 µM
TGI (IGROV1 ovarian): > 100 µM
TGI (SNB-19 CNS): > 100 µM
TGI (SK-MEL-28 melanoma): > 100 µM
TGI (COLO 205 colon): > 100 µM
